Test results reported in ChEMBL document CHEMBL3779791, “Captopril analogues as metallo-β-lactamase inhibitors” (Bioorg Med Chem Lett, 2016).
The source made the active and inactive calls. The rule behind the calls is not given here.

Each compound was assayed on Pseudomonas aeruginosa (assay: Competitive inhibition of Pseudomonas aeruginosa 101/1477 metallo-beta-lactamase IMP-1 expressed in Escherichia coli BL21 (DE3) using benzylpenicillin as substrate by spectrophotometric analysis).
In the case of `O=C(O)CC(=O)N1CCC[C@@H]1C(=O)O`, the Kic was “inactive”. Work on `O=C(O)[C@@H]1CCCN1C(=O)CS` yielded a Kic of 2.2 µM. In the case of `O=C(O)COC[C@H]1CCCN1C(=O)CCS`, the Kic was 390 µM. With `O=C(O)[C@H]1CCCN1C(=O)CCS` the Kic was 2.9 µM. `O=C(O)C1CCCCN1C(=O)CCS` (racemic) gave a Kic of 10 µM. For `O=C(O)[C@H]1CCCN1C(=O)CCCS`, the Kic was 5.8 µM. `O=C(O)C1CCCCN1C(=O)CS` (racemic) showed a Kic of 3.4 µM. In the case of `O=C(O)CCC(=O)N1CCC[C@@H]1C(=O)O`, the Kic was “inactive”. `O=C(O)CCCC(=O)N1CCC[C@H]1C(=O)O` was tested, and the Kic was “inactive”. In the case of `O=C(O)CC(=O)N1CCC[C@H]1C(=O)O`, the Kic was “inactive”. Work on `O=C(O)[C@@H]1CCCN1C(=O)CCCS` yielded a Kic of 7.2 µM. Work on `O=C(O)C1CCCCN1C(=O)CCCS` (racemic) yielded a Kic of 7.1 µM. `O=C(O)CCC(=O)N1CCC[C@H]1C(=O)O` was tested, and the Kic was “inactive”. With `CC(=O)SCC(=O)N1CCCCC1C(=O)O` (racemic) the Kic was 24 µM. With `O=C(O)[C@H]1CCCN1C(=O)CS` the Kic was 2.3 µM. For `O=C(O)COC[C@H]1CCCN1C(=O)CCCS`, the Kic was 363 µM. For `O=C(O)CCCC(=O)N1CCC[C@@H]1C(=O)O`, the Kic was “inactive”. `O=C(O)[C@@H]1CCCN1C(=O)CCS` showed a Kic of 9.9 µM. `O=C(O)COC[C@H]1CCCN1C(=O)CS` was tested, and the Kic was 290 µM.
